{"source": "patent US4136196A", "about": "“Hypoglycaemically active 2-(phenylalkyl- or -alkenyl hydrazono)-propionic acid derivatives” (Boehringer Mannheim GmbH, priority 1976, dated 1979)"}
{"tested_on": "blood glucose", "assay": "Blood sugar tests: hypoglycaemic activity in fasting guinea pigs, i.p.", "format": "in vivo, guinea pig", "conditions": "Cavia porcellus, ip, read-out: Threshold i.p. Dosage for Hypoglycaemic Activity in Testing Guinea Pigs", "protocol": "(§1) In order to illustrate the pharmacological properties of the compounds according to the invention, the blood sugarlowering effect and the monoaminoxidase (MAO) inhibition were determined and compared with some corresponding hydrazines. […] Metabolically healthy, cross-bred, fasting guinea pigs were injected with the substances as aqueous solutions of their sodium salts, i.p. A control group receives equivalent amounts of an isotonic NaCl solution. Directly before, as well as in hourly intervals up to the fourth hour after the […], 10 μl blood are taken from an ear border vein and the blood glucose is determined by means of the trouble-free and specific hexokinase technique.", "units": {"minimal effective dose": "mg/kg"}}
{"molecule": "CC(=NNCCc1cccc(Br)c1)C(=O)[O-].[Na+]", "note": "[sodium 2-(3-bromophenethylhydrazono)-propionate]", "minimal effective dose": "25 to 50"}
{"molecule": "CC(=NNCC=Cc1ccccc1)C(=O)[O-].[Na+]", "note": "[Sodium-2-(cinnamylhydrazono)-propionate, sodium 2-(cinnamylhydrazono)-propionate]", "minimal effective dose": 15}
{"molecule": "NNCCc1ccccc1", "note": "[Phenelzine, 2-phenylethyl-hydrazine, reference compound]", "minimal effective dose": "≥ 50"}
{"molecule": "COc1ccccc1CCNN=C(C)C(=O)[O-].[Na+]", "note": "[sodium 2-(2-methoxyphenethylhydrazono)-propionate]", "minimal effective dose": 25}
{"molecule": "CC(=NNCCCc1ccccc1)C(=O)[O-].[Na+]", "note": "[Sodium 2-(3-phenylpropylhydrazono)-propionate]", "minimal effective dose": 35}
{"tested_on": "blood glucose", "assay": "Blood sugar tests: hypoglycaemic activity in fasting guinea pigs, i.p.", "format": "in vivo, guinea pig", "conditions": "Cavia porcellus, ip; fasting guinea pigs, i.p., aqueous solutions of sodium salts; dosage which significantly lowers blood glucose versus control, up to fourth hour; read-out: Threshold i.p. Dosage for Hypoglycaemic Activity in Testing Guinea Pigs", "protocol": "as §1", "units": {"minimal effective dose": "mg/kg"}}
{"molecule": "COc1ccc(CCNN=C(C)C(=O)O)cc1", "note": "[2-(4-methoxyphenethylhydrazono)-propionic acid]", "minimal effective dose": 50}
{"molecule": "CC(=NNCCc1ccc(Cl)cc1)C(=O)O", "note": "[2-(4-chlorophenethylhydrazono)-propionic acid]", "minimal effective dose": 25}
{"molecule": "CC(=NNCCc1ccc(F)cc1)C(=O)O", "note": "[2-(4-fluorophenethylhydrazono)-propionic acid]", "minimal effective dose": 25}
{"molecule": "CCOC(=O)C(C)=NNCCc1ccccc1", "note": "[Ethyl 2-(phenethylhydrazono)-propionate]", "minimal effective dose": 25}
{"molecule": "CC(=NNCCc1ccc(C)cc1)C(=O)O", "note": "[2-[2-(p-tolyl)-ethylhydrazono]-propionic acid]", "minimal effective dose": 50}
{"molecule": "CC(=NNCCc1ccccc1)C(N)=O", "note": "[2-(phenethylhydrazono)-propionamide]", "minimal effective dose": 50}
{"molecule": "CC(=NNCCc1ccccc1)C(=O)O", "note": "[2-(phenethylhydrazono)-propionic acid, 2-(Phenethylhydrazono)-propionic acid]", "minimal effective dose": 15}
{"molecule": "CC(=NNCCc1ccccc1C)C(=O)O", "note": "[2-(2-methylphenethylhydrazono)-propionic acid]", "minimal effective dose": 50}
{"molecule": "COC(=O)C(C)=NNCCc1ccccc1", "note": "[Methyl 2-(phenethylhydrazono)-propionate]", "minimal effective dose": 50}
{"tested_on": "blood glucose", "assay": "Blood sugar tests: hypoglycaemic activity in fasting guinea pigs, i.p.", "format": "in vivo, guinea pig", "conditions": "fasting guinea pigs, i.p., aqueous solutions of sodium salts; dosage which significantly lowers blood glucose versus control, up to fourth hour", "protocol": "as §1", "units": {"Threshold i.p. Dosage for Hypoglycaemic Activity in Testing Guinea Pigs": "mg/kg"}}
{"molecule": "3-phenyl-propen-2-yl--hydrazin-hydrochloride [reference compound]", "Threshold i.p. Dosage for Hypoglycaemic Activity in Testing Guinea Pigs": "> 50"}
{"molecule": "sodium 2-(β-methylcinnamylhydrazono)-propionate", "Threshold i.p. Dosage for Hypoglycaemic Activity in Testing Guinea Pigs": 10}
{"tested_on": "MAO", "assay": "Measuring of the MAO activity in vitro (kynuramine substrate, unrefined guinea pig liver or brain preparation)", "format": "biochemical", "conditions": "360 mμ, read-out: Concentration for 50% MAO Inhibitions", "protocol": "In order to illustrate the pharmacological properties of the compounds according to the invention, the blood sugarlowering effect and the monoaminoxidase (MAO) inhibition were determined and compared with some corresponding hydrazines.\nAn unrefined MAO preparation is obtained by comminution of guinea pig liver or brain with the Ultraturrax and subsequent centrifuging at about 10,000 g. The liquid contains the MAO portion dissolved in the cytoplasm and is used for the activity measurements. As substrate there is used kynuramine whose oxidative decomposition by the MAO can be directly observed at 360 m μ in the photometer. The extinction decrease per time unit is a measure of the enzyme activity.", "units": {"IC50": "µM"}}
{"molecule": "CC(=NNCCc1ccccc1)C(=O)O", "note": "[2-(phenethylhydrazono)-propionic acid, 2-(Phenethylhydrazono)-propionic acid]", "IC50": 600}
{"molecule": "NNCCc1ccccc1", "note": "[Phenelzine, 2-phenylethyl-hydrazine, reference compound]", "IC50": 0.4}
{"tested_on": "not given", "assay": "not given", "conditions": "in high dosages; literature; cited from earlier work"}
{"molecule": "CC(NN)c1ccccc1", "note": "(centres unmarked) [mebanazine, 1-phenylethyl-hydrazine]", "hypoglycaemic activity": "can be hypoglycaemically active in high dosages"}
{"molecule": "NNCCc1ccccc1", "note": "[Phenelzine, 2-phenylethyl-hydrazine, reference compound]", "hypoglycaemic activity": "can be hypoglycaemically active in high dosages"}
